Patent US4950686A, “Anti-mycoplasma agent” (Shionogi & Co., Ltd., priority 1986, dated 1990)
≈ marks a conversion by molar mass, not a printed value. Where a name gives a salt, the structure may show the parent alone. Read-outs that look alike come from different tables or passages of the source.

Tests used:
[1] = tested on: Mycoplasma gallisepticum T-7-T (wild strain, tylosin-resistant); experiment: Anti-mycoplasma activity in vitro (MIC, broth dilution), strain T-7-T; assay type: cell-based; conditions: Mg T-7-T, 37° C., 7 days
Protocol: (§1) (1) Anti-mycoplasma activity test in vitro
(§2) MIC values of each of Tropolones were measured on the following strains according to the following method.
(§3) (a) Mycoplasma gallisepticum
T-7-T (wild strain, tylosin-resistant)
(§4) Medium: Chick PPLO broth supplemented with 20% equine serum (Eiken Kagaku Co., Ltd.)
(§5) Method: Broth dilution method
(§6) Inoculum: Culture incubated at 37° C. for 24-48 hr which is diluted with broth to 10^6 CCU/ml immediately before the use.
(§7) To 1.6 ml of the broth is added 0.2 ml of an agent which has been subjected to 2-fold dilution and then added 0.2 ml of inoculum, which is incubated at 37° C. for 7 days.

[2] = tested on: Mycoplasma hyopneumoniae ST-11 (standard strain); experiment: Anti-mycoplasma activity in vitro (MIC, broth dilution), strain ST-11; assay type: cell-based; conditions: Mh ST-11
Protocol: as §1, §2
(b) Mycoplasma hyopneumoniae
Strain: ST-11 (standard strain)
Medium: 850 ml of Hanks' solution supplemented with 0.5% lactoalbumin, 50 ml of 25% yeast, 100 ml of equine serum and 4-6 ml of 0.5% phenol red (pH 7.4-7.6)
as §5
Inoculum: Culture which is incubated for 3-4 days and diluted 10 times with the broth if color of the broth becomes yellow then. If it needs over 4 days until color of the broth becomes yellow, it is further subcultured. This is diluted 10 times with the broth to give inoculum.
Assay is done in the same manner as in the above (a).

[3] = tested on: Mycoplasma gallisepticum S6 (standard strain); experiment: Anti-mycoplasma activity in vitro (MIC, broth dilution), strain S6; assay type: cell-based; conditions: Mg S6, 37° C., 7 days
Protocol: as §1, §2, §3, §4, §5, §6, §7

[4] = tested on: Mycoplasma gallisepticum S6 (standard strain); experiment: Mycoplasma gallisepticum air-sac infection method in chicken, strain S6; assay type: in vivo, Mycoplasma gallisepticum; SPF chicken (white leghorn)
Protocol: (2) Test of Effectiveness Mycoplasma gallisepticum air-sac infection method
Inoculation: To the right air-sac of 9 days old SPF chicken (a white leghorn) which has abstained from water and feed one day before is inoculated 0.20-0.25 ml/chicken of fresh mycoplasma culture incubated for 24-48 hr and diluted with broth (usually 100 times). The concentration in Table 2 is shown in a unit of mg/ml.
Medium: Chick PPLO broth supplemented with 15% equine serum (Eiken Kagaku Co., Ltd.)
Administration: A compound of this invention dissolved or suspended in the following solution is orally and forcibly administered once by a cannula immediately after the infection.
Anatomization and Isolation of Microorganism: The chickens are anatomized 5 days after the infection, and the right and left air sacs are investigated whether they are attacked with a disease or not. The change caused by the disease is represented in four degrees; -: no change, +: slight, ++: medium and +++: serious. Microorganism is isolated from the right and left air-sacs and the trachea by using a sterilized applicator.
Judgement: Judgement is done through an index of an air-sac disease and an index of a microorganism-isolation.
Index of an air-sac-disease: First, indexes in the right and left air-sacs are separately calculated according to the following formula;
{degree of disease (0-3)×chickens}/anatomized chickens
and the index is calculated by the following formula;
(index of right air-sac)×1+(index of left air-sac)×2
Index of a microorganism isolation:
P: chickens from the right air-sac of which microorganism is isolated,
Q: chickens from the trachea of which microorganism is isolated,
R: chickens from the left air-sac of which microorganism is isolated, and
S: chickens investigated.

[5] = tested on: Mycoplasma gallisepticum MR-1 (wild strain, tylosin-resistant); experiment: Anti-mycoplasma activity in vitro (MIC, broth dilution), strain MR-1; assay type: cell-based; conditions: Mg MR-1, 37° C., 7 days
Protocol: as §1, §2, §3
MR-1 (wild strain, tylosin-resistant)
as §4, §5, §6, §7

[6] = 200 mg/kg × once oral, 20 mg/ml sol. b, inoculum 1.18 × 10^6
[7] = Mycoplasmoides gallisepticum, 168 h, read-out: MIC
[8] = Mesomycoplasma hyopneumoniae, read-out: MIC
[9] = 100 mg/kg × once oral, 10 mg/ml sol. b, inoculum 7.7 × 10^5
[10] = 100 mg/kg × once oral, 10 mg/ml sol. b, inoculum 7.7 × 10^5, range 0-6.0
[11] = 100 mg/kg × once oral, 10 mg/ml sol. b, inoculum 7.7 × 10^5, range 0-9.0

`O=c1cccccc1O` [Compound 12, Tropolone L-arginine salt] gave an MIC [1] of 3.13 µg/mL, an MIC [2] of 1.56 µg/mL and an MIC [3] of 3.13 µg/mL. The “Change of air-sac, left: + (chickens)” value [4, 6] was 0, the “Change of air-sac, left: ++ (chickens)” value [4, 6] was 0 and the “Change of air-sac, left: +++ (chickens)” value [4, 6] was 0. For the same compound, the “Change of air-sac, left: - (chickens)” value [4, 6] was 5, the “Change of air-sac, right: + (chickens)” value [4, 6] was 1 and the “Change of air-sac, right: ++ (chickens)” value [4, 6] was 0. The “Change of air-sac, right: +++ (chickens)” value [4, 6] was 0, the “Change of air-sac, right: - (chickens)” value [4, 6] was 4 and the “Isolation, L (left air-sac)” value [4, 6] was 0. For the same compound, the “Isolation, R (right air-sac)” value [4, 6] was 2, the “Isolation, T (trachea)” value [4, 6] was 1 and the “Mycoplasma Isolated Chickens” value [4, 6] was 2. The “Index of Isolation” value ([4]; 200 mg/kg × once oral, 20 mg/ml sol. b, inoculum 1.18 × 10^6, range 0-6.0) was 0.8, the “Index of Disease” value ([4]; 200 mg/kg × once oral, 20 mg/ml sol. b, inoculum 1.18 × 10^6, range 0-9.0) was 0.2 and the MIC [5] was 3.13 µg/mL.
`Cc1oc(=O)oc1COc1cccccc1=O` [Compound 25, O-{(2-Oxo-5-methyl-1,3-dioxol-4-yl)methyl}tropolone] was tested, and the MIC [1, 7] was 0.39 µg/mL (≈ 1.67 µM), the MIC [2, 8] was 0.2 µg/mL (≈ 0.854 µM) and the MIC [3, 7] was 0.39 µg/mL (≈ 1.67 µM). The “Change of air-sac, left: + (chickens)” value [4, 9] was 0, the “Change of air-sac, left: ++ (chickens)” value [4, 9] was 0 and the “Change of air-sac, left: +++ (chickens)” value [4, 9] was 0. The “Change of air-sac, left: - (chickens)” value [4, 9] was 8, the “Change of air-sac, right: + (chickens)” value [4, 9] was 1 and the “Change of air-sac, right: ++ (chickens)” value [4, 9] was 0. For the same compound, the “Change of air-sac, right: +++ (chickens)” value [4, 9] was 0, the “Change of air-sac, right: - (chickens)” value [4, 9] was 7 and the “Isolation, L (left air-sac)” value [4, 9] was 6. For the same compound, the “Isolation, R (right air-sac)” value [4, 9] was 5, the “Isolation, T (trachea)” value [4, 9] was 7 and the “Mycoplasma Isolated Chickens” value [4, 9] was 7. The “Index of Isolation” value [4, 10] was 4.38, the “Index of Disease” value [4, 11] was 0.13 and the MIC [5, 7] was 0.39 µg/mL (≈ 1.67 µM).
For `COc1ccccc(O)c1=O` [Compound 26, 7-Methoxytropolone], the MIC [1, 7] was 12.5 µg/mL (≈ 82.2 µM), the MIC [2, 8] was 3.13 µg/mL (≈ 20.6 µM) and the MIC [3, 7] was 6.25 µg/mL (≈ 41.1 µM). The “Change of air-sac, left: + (chickens)” value [4, 9] was 0, the “Change of air-sac, left: ++ (chickens)” value [4, 9] was 0 and the “Change of air-sac, left: +++ (chickens)” value [4, 9] was 0. For the same compound, the “Change of air-sac, left: - (chickens)” value [4, 9] was 8, the “Change of air-sac, right: + (chickens)” value [4, 9] was 4 and the “Change of air-sac, right: ++ (chickens)” value [4, 9] was 2. For the same compound, the “Change of air-sac, right: +++ (chickens)” value [4, 9] was 0, the “Change of air-sac, right: - (chickens)” value [4, 9] was 2 and the “Isolation, L (left air-sac)” value [4, 9] was 8. The “Isolation, R (right air-sac)” value [4, 9] was 5, the “Isolation, T (trachea)” value [4, 9] was 8 and the “Mycoplasma Isolated Chickens” value [4, 9] was 8. The “Index of Isolation” value [4, 10] was 4.88, the “Index of Disease” value [4, 11] was 1.00 and the MIC [5, 7] was 6.25 µg/mL (≈ 41.1 µM).
Compound `O=c1c(O)ccccc1O` [Compound 27, 7-Hydroxytropolone] has an MIC [1, 7] of 12.5 µg/mL (≈ 90.5 µM), an MIC [2, 8] of 12.5 µg/mL (≈ 90.5 µM) and an MIC [3, 7] of 12.5 µg/mL (≈ 90.5 µM). The MIC [5, 7] was 12.5 µg/mL (≈ 90.5 µM).
Compound `Cc1ccccc(O)c1=O` [Compound 28, 7-Methyltropolone] has an MIC [1, 7] of 0.39 µg/mL (≈ 2.86 µM), an MIC [2, 8] of 0.1 µg/mL (≈ 0.734 µM) and an MIC [3, 7] of 0.1 µg/mL (≈ 0.734 µM). For the same compound, the MIC [5, 7] was 0.2 µg/mL (≈ 1.47 µM).
In the case of Tropolone cobalt complex [Compound 3], the MIC [1] was 1.56 µg/mL, the MIC [2] was 0.78 µg/mL and the MIC [3] was 1.56 µg/mL. For the same compound, the MIC [5] was 3.13 µg/mL.
For Tropolone iron complex [Compound 1], the MIC [1] was 0.78 µg/mL, the MIC [2] was 0.39 µg/mL and the MIC [3] was 0.78 µg/mL. It also gave an MIC [5] of 0.56 µg/mL.
In the case of Tropolone zinc salt [Compound 7], the MIC [1] was 3.13 µg/mL, the MIC [2] was 0.78 µg/mL and the MIC [3] was 1.56 µg/mL. It also gave an MIC [5] of 3.13 µg/mL.
